According to patent US20260347338A1, “PYRIMIDINE/PYRIDINE DERIVATIVES OR SALTS THEREOF AND PHARMACEUTICAL COMPOSITIONS COMPRISING THE SAME” (YUHAN CORPORATION, priority 2023, published 2026):
pIC50: −log10 of the molar value. Where a name gives a salt, the structure may show the parent alone.

Target: T1, human recombinant HPK1 (Homo sapiens, UniProt Q92918)
T1 construct: purchased BPS Bioscience
Test: Inhibitory activity against human recombinant HPK1 (TR-FRET)
Assay type: biochemical
Conditions: ULight-p70S6K peptide, ATP at Km, room temperature, 1 hour, 0.32 to 1000 nM compound
Summary of the method: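 Recombinant human HPK1 with ULight-p70S6K peptide and ATP at Km, 1 h at room temperature in HEPES pH 7.4 buffer with Mg2+, Mn2+, EGTA, DTT; compounds 0.32–1000 nM final. EDTA stop, Eu-anti-phosphopeptide TR-FRET read (665 nm); IC50 from % inhibition versus DMSO, binned A–D at 10, 50, 100 nM.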

T1 sequence (Q92918 whole entry): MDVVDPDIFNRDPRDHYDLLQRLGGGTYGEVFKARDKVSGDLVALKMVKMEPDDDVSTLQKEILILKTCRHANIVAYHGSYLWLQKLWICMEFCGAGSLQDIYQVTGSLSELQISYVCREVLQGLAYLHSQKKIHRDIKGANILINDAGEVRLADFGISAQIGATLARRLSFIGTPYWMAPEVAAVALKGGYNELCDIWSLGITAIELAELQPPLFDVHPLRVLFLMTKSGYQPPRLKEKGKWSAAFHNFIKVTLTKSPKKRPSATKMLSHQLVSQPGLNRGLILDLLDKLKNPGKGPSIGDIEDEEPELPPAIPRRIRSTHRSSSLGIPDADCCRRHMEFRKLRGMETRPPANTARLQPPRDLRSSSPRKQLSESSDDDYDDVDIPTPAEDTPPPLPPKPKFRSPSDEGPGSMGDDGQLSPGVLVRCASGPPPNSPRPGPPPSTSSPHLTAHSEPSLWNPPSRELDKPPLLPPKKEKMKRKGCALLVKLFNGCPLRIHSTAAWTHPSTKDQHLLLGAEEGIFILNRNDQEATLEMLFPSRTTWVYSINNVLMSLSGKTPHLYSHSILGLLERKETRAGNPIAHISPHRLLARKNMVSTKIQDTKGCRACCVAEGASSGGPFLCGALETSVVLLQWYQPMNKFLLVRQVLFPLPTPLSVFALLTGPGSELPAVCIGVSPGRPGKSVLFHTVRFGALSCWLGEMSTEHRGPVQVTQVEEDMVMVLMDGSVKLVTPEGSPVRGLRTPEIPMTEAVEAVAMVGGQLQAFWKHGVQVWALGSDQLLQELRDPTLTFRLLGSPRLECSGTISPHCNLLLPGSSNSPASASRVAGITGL

In the case of `COc1cccc(F)c1-c1nccc(Nc2cc(N3CCC[C@H](N)C3)c(-c3ccc(C4CCNCC4)nc3)cn2)n1` [Example 248, (S)-4-(3-aminopiperidin-1-yl)-N-(2-(2-fluoro-6-methoxyphenyl)pyrimidin-4-yl)-6′-(piperidin-4-yl)-[3,3′-bipyridin]-6-amine hydrochloride], the pIC50 was ≥ 8.00.

`COc1cccc(F)c1-c1nccc(Nc2cc(N3CCC[C@H](N)C3)c(-c3ccc(OCCN(C)C)nc3)cn2)n1` [Example 249, (S)-4-(3-aminopiperidin-1-yl)-6′-(2-(dimethylamino)ethoxy)-N-(2-(2-fluoro-6-methoxyphenyl)pyrimidin-4-yl)-[3,3′-bipyridin]-6-amine hydrochloride] was tested, and the pIC50 was ≥ 8.00.

With `CCNC(=O)Nc1ccc(-c2cnc(Nc3ccnc(-c4c(F)cccc4OC)n3)cc2N2CCC[C@H](N)C2)cn1` [Example 250, (S)-1-(4′-(3-aminopiperidin-1-yl)-6′-((2-(2-fluoro-6-methoxyphenyl)pyrimidin-4-yl)amino)-[3,3′-bipyridin]-6-yl)-3-ethylurea hydrochloride] the pIC50 was ≥ 8.00.

For `COc1cc(C(=O)N2CC[C@@H](F)C2)cc(F)c1-c1nccc(Nc2cc(N3CCC[C@H](N)C3)c(-c3cnn(C(F)F)c3)cn2)n1` [Example 251, (4-(4-((4-((S)-3-aminopiperidin-1-yl)-5-(1-(difluoromethyl)-1H-pyrazol-4-yl)pyridin-2-yl)amino)pyrimidin-2-yl)-3-fluoro-5-methoxyphenyl)((R)-3-fluoropyrrolidin-1-yl)methanone], the pIC50 was ≥ 8.00.

With `COc1cccc(F)c1-c1nccc(Nc2cc(N3C[C@@H](N)CC[C@H]3C)c(-c3cnn(C(F)F)c3)cn2)n1` [Example 252, N-(4-((2R,5S)-5-amino-2-methylpiperidin-1-yl)-5-(1-(difluoromethyl)-1H-pyrazol-4-yl)pyridin-2-yl)-2-(2-fluoro-6-methoxyphenyl)pyrimidin-4-amine] the pIC50 was ≥ 8.00.

With `COc1cccc(F)c1-c1nccc(Nc2cc(N3CC[C@H](OC)[C@H](N)C3)c(-c3cnn(C(F)F)c3)cn2)n1` [Example 253, N-(4-((3R,4S)-3-amino-4-methoxypiperidin-1-yl)-5-(1-(difluoromethyl)-1H-pyrazol-4-yl)pyridin-2-yl)-2-(2-fluoro-6-methoxyphenyl)pyrimidin-4-amine] the pIC50 was ≥ 8.00.

For `COc1cccc(F)c1-c1nccc(Nc2cc(N3CC[C@@H](OC)[C@H](N)C3)c(-c3cnn(C(F)F)c3)cn2)n1` [Example 254, N-(4-((3R,4R)-3-amino-4-methoxypiperidin-1-yl)-5-(1-(difluoromethyl)-1H-pyrazol-4-yl)pyridin-2-yl)-2-(2-fluoro-6-methoxyphenyl)pyrimidin-4-amine], the pIC50 was ≥ 8.00.

With `COc1cccc(F)c1-c1nccc(Nc2cc(N3CCC[C@H](N)C3)c(-c3ccc(C(=O)N4CCOCC4)cc3)cn2)n1` [Example 255, (S)-(4-(4-(3-aminopiperidin-1-yl)-6-((2-(2-fluoro-6-methoxyphenyl)pyrimidin-4-yl)amino)pyridin-3-yl)phenyl)(morpholino)methanone hydrochloride] the pIC50 was ≥ 8.00.

For `COc1cccc(F)c1-c1nccc(Nc2cc(N3CCC[C@H](N)C3)c(-c3cnc4c(c3)OCCN4C)cn2)n1` [Example 256, (S)-N-(4-(3-aminopiperidin-1-yl)-5-(4-methyl-3,4-dihydro-2H-pyrido[3,2-b][1,4]oxazin-7-yl)pyridin-2-yl)-2-(2-fluoro-6-methoxyphenyl)pyrimidin-4-amine hydrochloride], the pIC50 was ≥ 8.00.

`COc1cccc(F)c1-c1nccc(Nc2cc(N3CCC[C@H](N)C3)c(-c3ccc4c(c3)OCCN4C)cn2)n1` [Example 257, (S)-N-(4-(3-aminopiperidin-1-yl)-5-(4-methyl-3,4-dihydro-2H-benzo[b][1,4]oxazin-7-yl)pyridin-2-yl)-2-(2-fluoro-6-methoxyphenyl)pyrimidin-4-amine hydrochloride] was tested, and the pIC50 was ≥ 8.00.

With `COc1cccc(F)c1-c1nccc(Nc2cc(N3CCC[C@H](N)C3)c(-c3ccc4c(c3)COC(=O)N4)cn2)n1` [Example 258, (S)-6-(4-(3-aminopiperidin-1-yl)-6-((2-(2-fluoro-6-methoxyphenyl)pyrimidin-4-yl)amino)pyridin-3-yl)-1,4-dihydro-2H-benzo[d][1,3]oxazin-2-one hydrochloride] the pIC50 was ≥ 8.00.

`COc1cccc(F)c1-c1nccc(Nc2cc(N3CCC[C@H](N)C3)c(-c3ccc(N4CCCC4=O)cc3)cn2)n1` [Example 259, (S)-1-(4-(4-(3-aminopiperidin-1-yl)-6-((2-(2-fluoro-6-methoxyphenyl)pyrimidin-4-yl)amino)pyridin-3-yl)phenyl)pyrrolidin-2-one hydrochloride] was tested, and the pIC50 was ≥ 8.00.

In the case of `COc1cccc(F)c1-c1nccc(Nc2cc(N3CCC[C@H](N)C3)c(-c3ccc4c(c3)OCC(=O)N4)cn2)n1` [Example 260, (S)-7-(4-(3-aminopiperidin-1-yl)-6-((2-(2-fluoro-6-methoxyphenyl)pyrimidin-4-yl)amino)pyridin-3-yl)-2H-benzo[b][1,4]oxazin-3(4H)-one hydrochloride], the pIC50 was ≥ 8.00.

In the case of `COc1cccc(F)c1-c1nccc(Nc2cc(N3CCC[C@H](N)C3)c(-c3ccc4c(c3)OCC(=O)N4C)cn2)n1` [Example 261, (S)-7-(4-(3-aminopiperidin-1-yl)-6-((2-(2-fluoro-6-methoxyphenyl)pyrimidin-4-yl)amino)pyridin-3-yl)-4-methyl-2H-benzo[b][1,4]oxazin-3(4H)-one hydrochloride], the pIC50 was ≥ 8.00.

With `COc1cccc(F)c1-c1nccc(Nc2cc(N3CCC[C@H](N)C3)c(-c3cc(C)c4c(c3)CCC(=O)N4)cn2)n1` [Example 262, (S)-6-(4-(3-aminopiperidin-1-yl)-6-((2-(2-fluoro-6-methoxyphenyl)pyrimidin-4-yl)amino)pyridin-3-yl)-8-methyl-3,4-dihydroquinolin-2(1H)-one hydrochloride] the pIC50 was ≥ 8.00.

With `COc1cccc(F)c1-c1nccc(Nc2cc(N3CCC[C@H](N)C3)c(-c3ccc4c(c3)CCC(=O)N4C)cn2)n1` [Example 263, (S)-6-(4-(3-aminopiperidin-1-yl)-6-((2-(2-fluoro-6-methoxyphenyl)pyrimidin-4-yl)amino)pyridin-3-yl)-1-methyl-3,4-dihydroquinolin-2(1H)-one hydrochloride] the pIC50 was ≥ 8.00.

In the case of `COc1cccc(F)c1-c1nccc(Nc2cc(N3CCC[C@H](O)C3)c(-c3cnn(C4CC(C)(C)OC(C)(C)C4)c3)cn2)n1` [Example 264, (S)-1-(2-((2-(2-fluoro-6-methoxyphenyl)pyrimidin-4-yl)amino)-5-(1-(2,2,6,6-tetramethyltetrahydro-2H-pyran-4-yl)-1H-pyrazol-4-yl)pyridin-4-yl)piperidin-3-ol], the pIC50 was ≥ 8.00.

In the case of `COc1cccc(F)c1-c1nccc(Nc2cc(N3CCC[C@H](N)C3)c(-c3ccc(C(=O)N4CCNCC4)cc3)cn2)n1` [Example 265, (S)-(4-(4-(3-aminopiperidin-1-yl)-6-((2-(2-fluoro-6-methoxyphenyl)pyrimidin-4-yl)amino)pyridin-3-yl)phenyl)(piperazin-1-yl)methanone hydrochloride], the pIC50 was ≥ 8.00.

`CNC[C@@H]1CCCN(c2cc(Nc3ccnc(-c4c(F)cccc4OC)n3)ncc2-c2cnn(C(F)F)c2)C1` [Example 266, (S)-N-(5-(1-(difluoromethyl)-1H-pyrazol-4-yl)-4-(3-((methylamino)methyl)piperidin-1-yl)pyridin-2-yl)-2-(2-fluoro-6-methoxyphenyl)pyrimidin-4-amine hydrochloride] was tested, and the pIC50 was ≥ 8.00.

With `CNC[C@H]1CCCN(c2cc(Nc3ccnc(-c4c(F)cccc4OC)n3)ncc2-c2cnn(C(F)F)c2)C1` [Example 267, (R)-N-(5-(1-(difluoromethyl)-1H-pyrazol-4-yl)-4-(3-((methylamino)methyl)piperidin-1-yl)pyridin-2-yl)-2-(2-fluoro-6-methoxyphenyl)pyrimidin-4-amine hydrochloride] the pIC50 was ≥ 8.00.

For `COc1cccc(F)c1-c1nccc(Nc2cc(N3CC[C@@H](N)[C@H](C)C3)c(-c3cnn(C(F)F)c3)cn2)n1` [Example 268, N-(4-((3R,4R)-4-amino-3-methylpiperidin-1-yl)-5-(1-(difluoromethyl)-1H-pyrazol-4-yl)pyridin-2-yl)-2-(2-fluoro-6-methoxyphenyl)pyrimidin-4-amine hydrochloride], the pIC50 was ≥ 8.00.

In the case of `COc1cccc(F)c1-c1nccc(Nc2cc(N3CCC[C@H](N)C3)c(-c3cnn(C4CC(C)(C)OC(C)(C)C4)c3)cn2)n1` [Example 269, (S)-N-(4-(3-aminopiperidin-1-yl)-5-(1-(2,2,6,6-tetramethyltetrahydro-2H-pyran-4-yl)-1H-pyrazol-4-yl)pyridin-2-yl)-2-(2-fluoro-6-methoxyphenyl)pyrimidin-4-amine hydrochloride], the pIC50 was ≥ 8.00.

For `COc1cccc(F)c1-c1nccc(Nc2cc(N3CCC[C@H](N)C3)c(-c3ccc4c(c3)NC(=O)C(C)O4)cn2)n1` (stereo partly drawn) [Example 270, 6-(4-((S)-3-aminopiperidin-1-yl)-6-((2-(2-fluoro-6-methoxyphenyl)pyrimidin-4-yl)amino)pyridin-3-yl)-2-methyl-2H-benzo[b][1,4]oxazin-3(4H)-one hydrochloride], the pIC50 was ≥ 8.00.

In the case of `COc1cccc(F)c1-c1nccc(Nc2cc(N3CCC[C@H](C)C3)c(-c3cnn(C(F)F)c3)cn2)n1` [Example 271, (S)-N-(5-(1-(difluoromethyl)-1H-pyrazol-4-yl)-4-(3-methylpiperidin-1-yl)pyridin-2-yl)-2-(2-fluoro-6-methoxyphenyl)pyrimidin-4-amine], the pIC50 was ≥ 8.00.

For `COc1cccc(F)c1-c1nccc(Nc2cc(N3CCC[C@H](CF)C3)c(-c3cnn(C(F)F)c3)cn2)n1` [Example 272, (S)-N-(5-(1-(difluoromethyl)-1H-pyrazol-4-yl)-4-(3-(fluoromethyl)piperidin-1-yl)pyridin-2-yl)-2-(2-fluoro-6-methoxyphenyl)pyrimidin-4-amine], the pIC50 was ≥ 8.00.
